Laboratory results published in PubChem BioAssay (NCI).
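Assay format: 96-well plates, 48-hour exposure. TGI is the concentration that stops growth completely.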

Tests used:
Experiment in all cases: DTP human tumour cell line panel, 48 h
[1] = test system: SR leukemia
[2] = test system: UO-31 renal
[3] = test system: SW-620 colon
[4] = test system: A498 renal
[5] = test system: NCI-H522 lung
[6] = test system: MCF7 breast
[7] = test system: MALME-3M melanoma
[8] = test system: NCI-H226 lung
[9] = test system: HOP-62 NSCLC
[10] = test system: HCC-2998 colon
[11] = test system: SK-MEL-28 melanoma
[12] = test system: NCI-H23 lung
[13] = test system: SF-295 CNS
[14] = test system: MOLT-4 leukemia
[15] = test system: NCI-H460 lung
[16] = test system: MDA-MB-435
[17] = test system: 786-0 renal
[18] = test system: MDA-N
[19] = test system: SK-OV-3 ovarian
[20] = test system: OVCAR-8 ovarian
[21] = test system: A549 NSCLC
[22] = test system: M14 melanoma
[23] = test system: MDA-MB-231 breast
[24] = test system: SNB-75 CNS
[25] = test system: HOP-92 NSCLC
[26] = test system: PC-3 prostate
[27] = test system: COLO 205 colon
[28] = test system: TK-10 renal
[29] = test system: ACHN renal
[30] = test system: KM12 colon
[31] = test system: CAKI-1 renal
[32] = test system: UACC-257 melanoma
[33] = test system: K-562 leukemia
[34] = test system: HCT-15 colon
[35] = test system: IGROV1 ovarian
[36] = test system: BT-549 breast
[37] = test system: OVCAR-4 ovarian
[38] = test system: RXF 393 renal
[39] = test system: SF-539 CNS
[40] = test system: CCRF-CEM leukemia
[41] = test system: SF-268 CNS
[42] = test system: SNB-19 CNS
[43] = test system: T-47D breast
[44] = test system: HS 578T breast
[45] = test system: SK-MEL-5 melanoma
[46] = test system: HCT-116 colon
[47] = test system: HT29 colon
[48] = test system: OVCAR-5 ovarian
[49] = test system: U251 CNS
[50] = test system: NCI/ADR-RES ovarian
[51] = test system: DU-145 prostate
[52] = test system: SN12C renal
[53] = test system: EKVX NSCLC
[54] = test system: OVCAR-3 ovarian
[55] = test system: LOX IMVI melanoma
[56] = test system: UACC-62 melanoma
[57] = test system: RPMI-8226 leukemia
[58] = test system: HL-60(TB) leukemia
[59] = test system: SK-MEL-2 melanoma

Cc1ccsc1C(=O)C(CC(=O)c1cccs1)c1ccsc1 (centres undefined)
TGI [1]: > 100 µM | TGI [2]: > 100 µM | TGI [3]: > 100 µM | TGI [4]: > 100 µM | TGI [5]: > 100 µM | TGI [6]: > 100 µM | TGI [7]: > 100 µM | TGI [8]: > 100 µM | TGI [9]: > 100 µM | TGI [10]: > 100 µM | TGI [11]: > 100 µM | TGI [12]: > 100 µM | TGI [13]: > 100 µM | TGI [14]: > 100 µM | TGI [15]: > 100 µM | TGI [16]: > 100 µM | TGI [17]: > 100 µM | TGI [18]: > 100 µM | TGI [19]: > 100 µM | TGI [20]: > 100 µM | TGI [21]: > 100 µM | TGI [22]: > 100 µM | TGI [23]: > 100 µM | TGI [24]: > 100 µM | TGI [25]: > 100 µM | TGI [26]: > 100 µM | TGI [27]: > 100 µM | TGI [28]: > 100 µM | TGI [29]: > 100 µM | TGI [30]: > 100 µM | TGI [31]: > 100 µM | TGI [32]: > 100 µM | TGI [33]: > 100 µM | TGI [34]: > 100 µM | TGI [35]: > 100 µM | TGI [36]: > 100 µM | TGI [37]: > 100 µM | TGI [38]: > 100 µM | TGI [39]: > 100 µM | TGI [40]: > 100 µM | TGI [41]: > 100 µM | TGI [42]: > 100 µM | TGI [43]: 77.1 µM | TGI [44]: > 100 µM | TGI [45]: > 100 µM | TGI [46]: > 100 µM | TGI [47]: > 100 µM | TGI [48]: > 100 µM | TGI [49]: > 100 µM | TGI [50]: > 100 µM | TGI [51]: > 100 µM | TGI [52]: > 100 µM | TGI [53]: > 100 µM | TGI [54]: > 100 µM

COc1ccc2c(c1)CCCN1Cc3cc(OC)c(OC)cc3CC21 (centres undefined)
TGI [2]: > 100 µM | TGI [3]: > 100 µM | TGI [5]: > 100 µM | TGI [6]: > 100 µM | TGI [7]: > 100 µM | TGI [8]: > 100 µM | TGI [9]: > 100 µM | TGI [10]: > 100 µM | TGI [11]: > 100 µM | TGI [12]: > 100 µM | TGI [13]: > 100 µM | TGI [14]: > 100 µM | TGI [15]: > 100 µM | TGI [16]: > 100 µM | TGI [55]: > 100 µM | TGI [56]: > 100 µM | TGI [17]: > 100 µM | TGI [18]: > 100 µM | TGI [19]: > 100 µM | TGI [20]: > 100 µM | TGI [21]: > 100 µM | TGI [22]: 44.1 µM | TGI [23]: > 100 µM | TGI [24]: > 100 µM | TGI [25]: > 100 µM | TGI [26]: > 100 µM | TGI [27]: > 100 µM | TGI [28]: > 100 µM | TGI [29]: > 100 µM | TGI [30]: > 100 µM | TGI [31]: > 100 µM | TGI [32]: > 100 µM | TGI [33]: > 100 µM | TGI [34]: > 100 µM | TGI [35]: > 100 µM | TGI [36]: > 100 µM | TGI [37]: > 100 µM | TGI [38]: > 100 µM | TGI [39]: > 100 µM | TGI [40]: > 100 µM | TGI [41]: > 100 µM | TGI [42]: > 100 µM | TGI [43]: > 100 µM | TGI [44]: > 100 µM | TGI [45]: > 100 µM | TGI [46]: > 100 µM | TGI [47]: > 100 µM | TGI [48]: > 100 µM | TGI [49]: > 100 µM | TGI [50]: > 100 µM | TGI [51]: > 100 µM | TGI [52]: > 100 µM | TGI [53]: > 100 µM | TGI [54]: > 100 µM

O=C(O)Cc1cccc2c1OC(c1ccccc1)C(C(=O)c1ccccc1)C2=O (centres undefined)
TGI [1]: > 100 µM | TGI [2]: > 100 µM | TGI [3]: > 100 µM | TGI [5]: > 100 µM | TGI [6]: > 100 µM | TGI [7]: > 100 µM | TGI [8]: > 100 µM | TGI [9]: > 100 µM | TGI [57]: > 100 µM | TGI [10]: 59.7 µM | TGI [11]: > 100 µM | TGI [12]: > 100 µM | TGI [13]: > 100 µM | TGI [14]: > 100 µM | TGI [15]: > 100 µM | TGI [16]: > 100 µM | TGI [55]: > 100 µM | TGI [56]: 48.7 µM | TGI [17]: > 100 µM | TGI [18]: > 100 µM | TGI [19]: > 100 µM | TGI [20]: > 100 µM | TGI [21]: > 100 µM | TGI [58]: 50.9 µM | TGI [23]: > 100 µM | TGI [24]: 51.3 µM | TGI [26]: > 100 µM | TGI [27]: > 100 µM | TGI [28]: 79.9 µM | TGI [29]: > 100 µM | TGI [30]: > 100 µM | TGI [31]: > 100 µM | TGI [32]: > 100 µM | TGI [33]: > 100 µM | TGI [34]: > 100 µM | TGI [35]: > 100 µM | TGI [36]: > 100 µM | TGI [38]: > 100 µM | TGI [39]: > 100 µM | TGI [40]: > 100 µM | TGI [41]: > 100 µM | TGI [42]: > 100 µM | TGI [43]: 56.9 µM | TGI [44]: > 100 µM | TGI [45]: > 100 µM | TGI [46]: > 100 µM | TGI [48]: > 100 µM | TGI [49]: > 100 µM | TGI [50]: > 100 µM | TGI [51]: > 100 µM | TGI [52]: > 100 µM | TGI [53]: > 100 µM | TGI [54]: > 100 µM

CC1(O)CC23CC1CCC2(C)C12CCCC(C)(C(=O)O1)C2CC3O (centres undefined)
TGI [1]: > 100 µM | TGI [2]: > 100 µM | TGI [3]: > 100 µM | TGI [4]: > 100 µM | TGI [5]: > 100 µM | TGI [6]: > 100 µM | TGI [7]: > 100 µM | TGI [8]: > 100 µM | TGI [10]: > 100 µM | TGI [11]: > 100 µM | TGI [12]: > 100 µM | TGI [13]: > 100 µM | TGI [15]: > 100 µM | TGI [16]: > 100 µM | TGI [55]: > 100 µM | TGI [56]: > 100 µM | TGI [17]: > 100 µM | TGI [18]: > 100 µM | TGI [19]: > 100 µM | TGI [20]: > 100 µM | TGI [21]: > 100 µM | TGI [22]: > 100 µM | TGI [23]: > 100 µM | TGI [24]: > 100 µM | TGI [25]: > 100 µM | TGI [26]: > 100 µM | TGI [27]: > 100 µM | TGI [28]: > 100 µM | TGI [29]: > 100 µM | TGI [30]: > 100 µM | TGI [31]: > 100 µM | TGI [32]: > 100 µM | TGI [33]: > 100 µM | TGI [34]: > 100 µM | TGI [35]: > 100 µM | TGI [36]: > 100 µM | TGI [37]: > 100 µM | TGI [39]: > 100 µM | TGI [40]: > 100 µM | TGI [41]: > 100 µM | TGI [42]: > 100 µM | TGI [43]: > 100 µM | TGI [44]: > 100 µM | TGI [45]: > 100 µM | TGI [46]: > 100 µM | TGI [47]: > 100 µM | TGI [59]: > 100 µM | TGI [48]: > 100 µM | TGI [49]: > 100 µM | TGI [50]: > 100 µM | TGI [51]: > 100 µM | TGI [52]: > 100 µM | TGI [53]: > 100 µM
